From patent publication US10800791B2, “Triazole ACC inhibitors and uses thereof” (Gilead Apollo, LLC, priority 2015, dated 2020)
In brackets after ≈: the same amount, converted by molar mass. Read-outs that look alike come from different tables or passages of the source.

Experiments:
human (hACC2) = human (hACC2) (Homo sapiens, UniProt O00763); assay: In vitro ACC inhibition assay (ADP-Glo), hACC2; format: biochemical; settings: 5 nM ACC2, 20 μM ATP, 20 μM acetyl-CoA
Method: The detailed procedure is as follows. […] 10 μL ADP glo reagent was added. […] 20 μL kinase detection reagent was added.

C. albicans = assay: Antifungal Activity Assay (broth microtiter MIC), C. albicans; format: cell-based, Candida albicans; settings: Candida albicans, ATCC90028, 48 h, ATCC 90028, 3 replicates, MIC recorded at 48 h, read-out: MIC, C. albicans ATCC 90028
Method: (§1) Compounds of the present invention were evaluated in an Antifungal Activity Assay. An exemplary procedure for the assay, which measures the susceptibility of various Candida species to antifungal compounds, follows. Compounds to be tested (including fluconazole and amphotericin B) were dissolved in DMSO to obtain a solution having a concentration of 1 mg/mL. These stock solutions were sterile filtered using a 0.22 um nylon syringe filter, then diluted in sterile water to achieve a final concentration of 128 μg/mL.
(§2) All species were grown from frozen stock by directly plating on to freshly prepared Sabouraud Dextrose agar (BD, Difco) and incubated overnight in ambient air at 35° C. for 24 h. A direct suspension was prepared in RPMI 1640+MOPS (Lonza, Biowhittaker) by taking individual colonies from the overnight cultures using sterile swabs soaked in sterile saline. The concentration of the suspension was determined using pre-determined standard curves. These suspensions were then diluted down to 5×10^3 CFU/mL to achieve a final concentration of 2.5×10^3 CFU/mL once added to the microtiter plate as per CLSI guidelines (M27-A3, Vol. 28 No. 14).
(§3) Broth microtiter MIC challenge plates were prepared following CLSI guidelines (M27-A3, Vol. 28 No. 14). The original CLSI guidelines focused on reading Candida MICs after 48 h of incubation. As reading after only 24 h offers a clear advantage of patient care, QC limits are being established for all drugs at 24 h. That being said there are no known interpretive breakpoints for amphotericin B at 24 h and the current fluconazole interpretive breakpoints are based on a 48 h reading. The MICs for the test compounds were recorded at 48 h. All MIC determinations were achieved by visually comparing the growth found in the antibiotic challenged wells to that of the growth control.

C. krusei = assay: Antifungal Activity Assay (broth microtiter MIC), C. krusei; format: cell-based, Candida krusei; settings: Pichia kudriavzevii, ATCC6258, 48 h, ATCC 6258, 3 replicates, MIC recorded at 48 h, read-out: MIC, C. krusei ATCC 6258
Method: as §1, §2, §3

C. parapsilosis = assay: Antifungal Activity Assay (broth microtiter MIC), C. parapsilosis; format: cell-based, Candida parapsilosis; settings: Lodderomyces parapsilosis, ATCC22019, 48 h, ATCC 22019, 3 replicates, MIC recorded at 48 h, read-out: MIC, C. parapsilosis ATCC 22019
Method: as §1, §2, §3

fungal (fACC2) = fungal (fACC2) (UniProt Q00955); settings: read-out: fACC2 (in vitro ACC2 Inhibition Assay, IC50), ADP-Glo, 5 nM ACC2, 20 μM ATP, 20 μM acetyl-CoA
Chain of fungal (fACC2) (Q00955 whole entry): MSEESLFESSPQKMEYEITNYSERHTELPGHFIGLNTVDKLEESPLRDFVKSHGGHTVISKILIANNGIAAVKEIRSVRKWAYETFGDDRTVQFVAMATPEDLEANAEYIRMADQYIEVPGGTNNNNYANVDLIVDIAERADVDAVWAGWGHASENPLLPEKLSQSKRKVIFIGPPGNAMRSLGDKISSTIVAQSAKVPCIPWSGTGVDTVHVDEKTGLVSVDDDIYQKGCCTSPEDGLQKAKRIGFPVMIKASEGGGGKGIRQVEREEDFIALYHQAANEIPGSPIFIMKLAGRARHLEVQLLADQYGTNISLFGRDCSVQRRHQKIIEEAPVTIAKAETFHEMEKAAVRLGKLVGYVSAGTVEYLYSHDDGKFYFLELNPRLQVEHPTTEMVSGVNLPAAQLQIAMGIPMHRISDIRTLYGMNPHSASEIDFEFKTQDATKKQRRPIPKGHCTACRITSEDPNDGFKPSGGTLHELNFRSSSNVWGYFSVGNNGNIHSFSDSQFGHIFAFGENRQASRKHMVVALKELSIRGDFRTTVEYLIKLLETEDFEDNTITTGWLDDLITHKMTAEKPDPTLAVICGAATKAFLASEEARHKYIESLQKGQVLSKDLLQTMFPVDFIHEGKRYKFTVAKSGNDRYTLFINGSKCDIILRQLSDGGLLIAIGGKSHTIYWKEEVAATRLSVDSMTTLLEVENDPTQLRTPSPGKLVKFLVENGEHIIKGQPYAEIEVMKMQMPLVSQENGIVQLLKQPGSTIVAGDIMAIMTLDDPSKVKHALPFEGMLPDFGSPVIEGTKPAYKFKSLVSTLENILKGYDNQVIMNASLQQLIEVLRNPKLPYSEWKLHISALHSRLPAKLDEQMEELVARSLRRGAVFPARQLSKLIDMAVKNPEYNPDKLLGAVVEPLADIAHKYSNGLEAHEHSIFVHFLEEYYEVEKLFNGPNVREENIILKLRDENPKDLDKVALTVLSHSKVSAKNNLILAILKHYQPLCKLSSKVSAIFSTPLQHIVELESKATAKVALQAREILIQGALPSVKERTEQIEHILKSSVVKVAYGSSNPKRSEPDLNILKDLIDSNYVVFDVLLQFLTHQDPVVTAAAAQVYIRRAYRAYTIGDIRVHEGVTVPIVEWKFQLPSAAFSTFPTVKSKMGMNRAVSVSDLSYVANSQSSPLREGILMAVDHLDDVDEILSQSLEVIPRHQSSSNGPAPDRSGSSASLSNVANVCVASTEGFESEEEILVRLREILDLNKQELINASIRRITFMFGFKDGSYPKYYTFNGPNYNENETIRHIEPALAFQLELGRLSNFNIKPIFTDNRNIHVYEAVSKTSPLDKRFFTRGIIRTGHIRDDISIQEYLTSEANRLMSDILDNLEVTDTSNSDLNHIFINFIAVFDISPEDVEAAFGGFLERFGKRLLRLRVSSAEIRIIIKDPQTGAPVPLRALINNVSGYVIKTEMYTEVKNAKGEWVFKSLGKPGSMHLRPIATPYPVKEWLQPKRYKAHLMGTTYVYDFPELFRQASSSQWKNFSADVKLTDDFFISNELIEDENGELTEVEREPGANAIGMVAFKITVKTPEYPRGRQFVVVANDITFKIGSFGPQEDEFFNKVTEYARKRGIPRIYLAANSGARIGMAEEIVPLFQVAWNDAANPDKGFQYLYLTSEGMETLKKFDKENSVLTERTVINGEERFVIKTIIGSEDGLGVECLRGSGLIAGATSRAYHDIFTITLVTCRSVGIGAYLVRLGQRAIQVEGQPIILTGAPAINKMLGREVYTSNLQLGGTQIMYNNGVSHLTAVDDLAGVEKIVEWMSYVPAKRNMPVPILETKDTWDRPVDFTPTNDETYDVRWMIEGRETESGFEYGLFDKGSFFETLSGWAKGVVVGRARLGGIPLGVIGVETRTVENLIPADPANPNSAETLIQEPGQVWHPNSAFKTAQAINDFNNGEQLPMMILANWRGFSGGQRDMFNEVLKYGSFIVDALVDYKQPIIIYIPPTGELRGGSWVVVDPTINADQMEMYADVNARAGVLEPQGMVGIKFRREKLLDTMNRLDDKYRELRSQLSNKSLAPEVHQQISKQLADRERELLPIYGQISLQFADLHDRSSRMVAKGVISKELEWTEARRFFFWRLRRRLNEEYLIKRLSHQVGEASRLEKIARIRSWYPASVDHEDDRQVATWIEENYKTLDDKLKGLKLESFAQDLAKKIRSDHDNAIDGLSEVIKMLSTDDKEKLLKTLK

Chain of human (hACC2) (O00763 whole entry): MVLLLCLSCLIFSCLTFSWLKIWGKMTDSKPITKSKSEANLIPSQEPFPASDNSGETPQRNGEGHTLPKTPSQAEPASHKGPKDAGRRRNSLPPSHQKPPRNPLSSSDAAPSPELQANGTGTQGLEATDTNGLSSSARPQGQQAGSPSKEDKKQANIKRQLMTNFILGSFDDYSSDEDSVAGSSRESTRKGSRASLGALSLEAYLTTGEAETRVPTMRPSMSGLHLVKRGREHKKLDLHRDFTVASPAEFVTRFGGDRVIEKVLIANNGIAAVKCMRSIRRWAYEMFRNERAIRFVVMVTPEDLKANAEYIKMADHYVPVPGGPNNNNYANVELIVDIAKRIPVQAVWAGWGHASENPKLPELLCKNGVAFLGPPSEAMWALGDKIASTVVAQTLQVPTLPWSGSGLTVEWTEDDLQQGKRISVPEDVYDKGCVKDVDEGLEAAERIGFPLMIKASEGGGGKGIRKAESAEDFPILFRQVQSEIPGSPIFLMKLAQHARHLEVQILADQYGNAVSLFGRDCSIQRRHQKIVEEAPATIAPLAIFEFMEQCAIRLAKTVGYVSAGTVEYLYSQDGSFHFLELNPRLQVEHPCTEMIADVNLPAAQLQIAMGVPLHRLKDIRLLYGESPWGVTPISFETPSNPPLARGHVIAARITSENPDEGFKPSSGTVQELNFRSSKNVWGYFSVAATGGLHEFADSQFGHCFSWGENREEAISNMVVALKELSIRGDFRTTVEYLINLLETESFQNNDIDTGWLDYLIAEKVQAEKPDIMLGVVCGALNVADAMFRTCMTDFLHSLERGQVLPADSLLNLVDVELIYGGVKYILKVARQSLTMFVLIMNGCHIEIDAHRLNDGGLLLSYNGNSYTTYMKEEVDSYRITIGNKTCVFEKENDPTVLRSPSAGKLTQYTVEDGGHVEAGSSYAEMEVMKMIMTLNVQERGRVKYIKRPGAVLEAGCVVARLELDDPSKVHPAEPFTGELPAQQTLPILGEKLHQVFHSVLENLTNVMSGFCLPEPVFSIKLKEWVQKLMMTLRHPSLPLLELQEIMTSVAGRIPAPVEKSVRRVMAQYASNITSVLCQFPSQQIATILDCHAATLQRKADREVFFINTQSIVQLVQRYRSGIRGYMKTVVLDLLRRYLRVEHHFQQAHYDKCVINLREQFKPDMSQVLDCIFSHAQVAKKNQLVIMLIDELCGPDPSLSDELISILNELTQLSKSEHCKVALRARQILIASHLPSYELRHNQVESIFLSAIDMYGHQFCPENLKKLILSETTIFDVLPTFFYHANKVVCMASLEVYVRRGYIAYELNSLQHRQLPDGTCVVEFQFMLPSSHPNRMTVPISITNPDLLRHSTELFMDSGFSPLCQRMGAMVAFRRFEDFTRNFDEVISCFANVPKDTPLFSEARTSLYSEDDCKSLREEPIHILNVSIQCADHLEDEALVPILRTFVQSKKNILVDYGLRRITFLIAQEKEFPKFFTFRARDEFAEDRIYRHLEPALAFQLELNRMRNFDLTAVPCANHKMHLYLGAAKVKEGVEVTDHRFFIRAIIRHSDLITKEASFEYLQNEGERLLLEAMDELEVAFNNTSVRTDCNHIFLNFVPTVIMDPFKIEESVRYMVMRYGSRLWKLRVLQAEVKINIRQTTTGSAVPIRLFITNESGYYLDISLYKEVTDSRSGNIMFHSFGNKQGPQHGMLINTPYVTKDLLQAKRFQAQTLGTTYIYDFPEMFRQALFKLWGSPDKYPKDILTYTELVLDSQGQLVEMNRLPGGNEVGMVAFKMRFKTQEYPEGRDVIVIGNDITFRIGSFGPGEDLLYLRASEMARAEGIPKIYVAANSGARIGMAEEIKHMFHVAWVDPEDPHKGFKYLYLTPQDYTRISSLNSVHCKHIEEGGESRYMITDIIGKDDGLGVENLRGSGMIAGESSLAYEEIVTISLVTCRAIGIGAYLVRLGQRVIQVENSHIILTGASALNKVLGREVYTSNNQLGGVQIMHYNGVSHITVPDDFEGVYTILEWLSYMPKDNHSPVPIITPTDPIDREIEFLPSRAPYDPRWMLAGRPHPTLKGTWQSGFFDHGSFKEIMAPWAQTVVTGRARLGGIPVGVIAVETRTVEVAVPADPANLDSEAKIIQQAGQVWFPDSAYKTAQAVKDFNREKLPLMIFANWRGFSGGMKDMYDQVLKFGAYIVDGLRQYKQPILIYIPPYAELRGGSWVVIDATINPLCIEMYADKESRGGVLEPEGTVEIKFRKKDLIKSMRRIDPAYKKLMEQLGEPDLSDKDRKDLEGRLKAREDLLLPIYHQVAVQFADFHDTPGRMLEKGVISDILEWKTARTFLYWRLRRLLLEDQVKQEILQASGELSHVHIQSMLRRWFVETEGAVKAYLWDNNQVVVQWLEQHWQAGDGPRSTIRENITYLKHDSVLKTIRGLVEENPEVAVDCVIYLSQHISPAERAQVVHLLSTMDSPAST

SMILES	IC50 (human (hACC2); Table 2b, additional results) [nM]	MIC (C. albicans; Table 3b (additional results)) [µg/mL]	MIC (C. krusei; Table 3b (additional results)) [µg/mL]	MIC (C. parapsilosis; Table 3b (additional results)) [µg/mL]	IC50 (fungal (fACC2); Table 2b, additional results) [nM]	IC50 (human (hACC2); Table 2a) [nM]	MIC (C. albicans; Table 3a) [µg/mL]	MIC (C. krusei; Table 3a) [µg/mL]	MIC (C. parapsilosis; Table 3a) [µg/mL]	IC50 (fungal (fACC2); Table 2a) [nM]
CCc1ccc(F)cc1[C@H](Cn1c(=O)n(C(C)(C)C(=O)NC(C)C)c(=O)c2c(C)c(-n3nccn3)sc21)OCC(C)(C)O (stereo in doubt) [Compound I-240]	10 to 40	1.01 to 2 (≈ 1.64 to 3.25 µM)	> 4.01	2.01 to 4 (≈ 3.27 to 6.51 µM)	1 to 5					
CCc1ccc(F)cc1[C@@H](Cn1c(=O)n(C(C)(C)C(=O)NC(C)C)c(=O)c2c(C)c(-n3nccn3)sc21)OCC(C)(C)O (stereo in doubt) [Compound I-241]	> 40	1.01 to 2 (≈ 1.64 to 3.25 µM)	> 4.01	2.01 to 4 (≈ 3.27 to 6.51 µM)	5 to 10					
COCCO[C@@H](Cn1c(=O)n([C@@H](C)C(=O)NC(C)C)c(=O)c2c(C)c(-n3nccn3)sc21)c1cc(F)ccc1OC [Compound I-83, (S)-2-(1-((R)-2-(5-fluoro-2-methoxyphenyl)-2-(2-methoxy-ethoxy)ethyl)-5-methyl-2,4-dioxo-6-(2H-1,2,3-triazol-2-yl)-1,4-dihydrothieno[2,3-d]pyrimidin-3(2H)-yl)-N-isopropylpropanamide]	> 40	> 4.01	2.01 to 4 (≈ 3.41 to 6.8 µM)	1.01 to 2 (≈ 1.72 to 3.4 µM)	1 to 5	> 40	2.1 to 4 (≈ 3.57 to 6.8 µM)	2.1 to 4 (≈ 3.57 to 6.8 µM)	2.1 to 4 (≈ 3.57 to 6.8 µM)	1 to 5
[2H]C([2H])([2H])Oc1ccccc1[C@H](Cn1c(=O)n(C(C)(C)C(N)=O)c(=O)c2c(C)c(-n3nccn3)sc21)OC1CCOCC1 [Compound I-92]	5 to 10	0.25 to 1 (≈ 0.437 to 1.75 µM)	1.01 to 2 (≈ 1.77 to 3.5 µM)	2.01 to 4 (≈ 3.52 to 7 µM)		5 to 10	0.25 to 1 (≈ 0.437 to 1.75 µM)	0.25 to 1 (≈ 0.437 to 1.75 µM)	1.1 to 2 (≈ 1.92 to 3.5 µM)	
COc1ccc(F)cc1[C@H](Cn1c(=O)n(C(C)(C)C(=O)O)c(=O)c2c(C)c(-n3nccn3)sc21)OC(C)C [Compound I-93]	5 to 10	2.01 to 4 (≈ 3.68 to 7.33 µM)	1.01 to 2 (≈ 1.85 to 3.67 µM)	> 4.01		5 to 10	2.1 to 4 (≈ 3.85 to 7.33 µM)	2.1 to 4 (≈ 3.85 to 7.33 µM)	> 4.1	
COc1ccc(F)cc1[C@H](Cn1c(=O)n(C(C)(C)C(=O)O)c(=O)c2c(C)c(-n3nccn3)sc21)OCC(C)C [Compound I-94]	1 to 5	2.01 to 4 (≈ 3.59 to 7.15 µM)	2.01 to 4 (≈ 3.59 to 7.15 µM)	> 4.01		1 to 5	0.25 to 1 (≈ 0.447 to 1.79 µM)	2.1 to 4 (≈ 3.75 to 7.15 µM)	2.1 to 4 (≈ 3.75 to 7.15 µM)	
COc1ccc(F)cc1[C@H](Cn1c(=O)n(C(C)(C)C(=O)N2CC(O)C2)c(=O)c2c(C)c(-n3nccn3)sc21)OCC(C)C [Compound I-95]	5 to 10	2.01 to 4 (≈ 3.27 to 6.51 µM)	1.01 to 2 (≈ 1.64 to 3.25 µM)	2.01 to 4 (≈ 3.27 to 6.51 µM)		5 to 10	1.1 to 2 (≈ 1.79 to 3.25 µM)	1.1 to 2 (≈ 1.79 to 3.25 µM)	1.1 to 2 (≈ 1.79 to 3.25 µM)	
COc1ccccc1[C@H](Cn1c(=O)n(C(C)(C)C(=O)O)c(=O)c2c(C)c(-n3nccn3)sc21)OC1CCOCC1 [Compound I-96]	1 to 5	1.01 to 2 (≈ 1.77 to 3.51 µM)	2.01 to 4 (≈ 3.53 to 7.02 µM)	2.01 to 4 (≈ 3.53 to 7.02 µM)	1 to 5	1 to 5	2.1 to 4 (≈ 3.69 to 7.02 µM)	2.1 to 4 (≈ 3.69 to 7.02 µM)	2.1 to 4 (≈ 3.69 to 7.02 µM)	1 to 5
COc1ccc(F)cc1[C@H](Cn1c(=O)n(C(C)(C)C(=O)NC(C)C)c(=O)c2c(C)c(-n3nccn3)sc21)OCC(C)=O [Compound I-97]	1 to 5	1.01 to 2 (≈ 1.68 to 3.33 µM)	0.25 to 1 (≈ 0.416 to 1.66 µM)	1.01 to 2 (≈ 1.68 to 3.33 µM)	0.3 to 1	1 to 5	0.25 to 1 (≈ 0.416 to 1.66 µM)	0.06 to 0.24 (≈ 0.0999 to 0.4 µM)	0.25 to 1 (≈ 0.416 to 1.66 µM)	0.4 to 1
